Source: patent US4497811A, “1-Oxadethiacephalosporin compound and antibacterial agent containing the _same” (priority 1983, dated 1985)
Structures can show the parent of a compound that is named as a salt.

Tests used:
[1] = tested on: gram-positive and gram-negative bacteria; experiment: Antibacterial spectra in vitro (MIC), summary in words; assay type: cell-based; settings: compared to cefroxadine
Excerpt: Minimum inhibitory concentrations (MIC.) (mcg/ml) as determined by serial
dilution method on agar plates

[2] = tested on: Escherichia coli No. 29; experiment: Curative effect by oral administration in mice infected intraperitoneally with Escherichia coli No. 29 (survival over 7 days); assay type: in vivo; settings: for number of surviving mice: three mice in each group, 7 days
Excerpt: Thus, some tests were made to evaluate the curative effects of the new compound of this invention in therapeutic treatment of bacterial infections when the new compound was orally given to mice (average body weight 20 g) which had been infected with Escherichia coli No. 29. In these tests for therapeutic treatment of the bacterial infection, mice (three mice in each group) were inoculated intraperitoneally with Escherichia coli No. 29 at an inoculmn dose of 3.25×10^5 CFU/mouse and then immediately treated by oral administration of the test compound. For the subsequent 7 days, the mice were kept under observation and the number of surviving mice was counted.

Row | Structure (SMILES) | antibacterial activity against resistant strains of bacteria [1] | antibacterial spectrum (range) [1] | number of surviving mice ([2]; 0.1 mg/mouse) | number of surviving mice ([2]; 1 mg/mouse) | number of surviving mice ([2]; 5 mg/mouse) | number of surviving mice ([2]; 10 mg/mouse) | curative effects in therapeutic treatment of the bacterial infection in vivo ([2]; mice infected with Escherichia coli No. 29)
1 | CSC1=C(C(=O)O)N2C(=O)C(NC(=O)C(C(=O)O)c3cccs3)C2OC1 (stereo not shown) [Example 3(b), 7-[2-(2-thienyl)-2-carboxyacetamido]-1-oxa-1-dethia-3-methylthio-3-cephem-4-carboxylic acid] | effective and higher antibacterial activity against resistant strains of bacteria than cefroxadine | wider range of the antibacterial spectrum than cefroxadine | – | – | – | – | –
2 | CO/N=C(\C(=O)NC1C(=O)N2C(C(=O)O)=C(SC)COC12)c1csc(N)n1 (stereo not drawn) [Example 6(b), 7-[2-(2-amino-4-thiazolyl)-2-methoxyiminoacetamido]-1-oxa-1-dethia-3-methylthio-3-cephem-4-carboxylic acid trifluoroacetate (syn-isomer)] | – | – | 1 mice | 3 mice | 3 mice | 3 mice | better curative effects in therapeutic treatment of the bacterial infection in vivo
3 | CSC1=C(C(=O)O)N2C(=O)C(NC(=O)C(C(=O)O)c3ccsc3)C2OC1 (stereo not shown) [Example 4(b), 7-[2-(3-thienyl)-2-carboxyacetamido]-1-oxa-1-dethia-3-methylthio-3-cephem-4-carboxylic acid] | effective and higher antibacterial activity against resistant strains of bacteria than cefroxadine | wider range of the antibacterial spectrum than cefroxadine | – | – | – | – | –
4 | CSC1=C(C(=O)O)N2C(=O)C(NC(=O)Cc3ccsc3)C2OC1 (stereo not shown) [Example 2(b), 7-(3-thienylacetamido)-1-oxa-1-dethia-3-methylthio-3-cephem-4-carboxylic acid] | effective and higher antibacterial activity against resistant strains of bacteria than cefroxadine | wider range of the antibacterial spectrum than cefroxadine | – | – | – | – | –
5 | CSC1=C(C(=O)O)N2C(=O)C(NC(=O)Cc3cccs3)C2OC1 (stereo not shown) [Example 1(b), 7-(2-thienylacetamido)-1-oxa-1-dethia-3-methylthio-3-cephem-4-carboxylic acid] | effective and higher antibacterial activity against resistant strains of bacteria than cefroxadine | wider range of the antibacterial spectrum than cefroxadine | – | – | – | – | –
